Measurements taken from PubChem BioAssay (NCI).
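A five-concentration, 48-hour dose response in 96-well plates underlies each endpoint, interpolated linearly between surrounding concentrations. TGI denotes the concentration required for complete inhibition of growth.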

Legend:
Assay in all cases: NCI tumour cell line growth inhibition, 48 h
786-0 renal = tested on: 786-0 renal
A498 renal = tested on: A498 renal
A549 NSCLC = tested on: A549 NSCLC
ACHN renal = tested on: ACHN renal
CAKI-1 renal = tested on: CAKI-1 renal
CCRF-CEM leukemia = tested on: CCRF-CEM leukemia
COLO 205 colon = tested on: COLO 205 colon
DLD-1 colon = tested on: DLD-1 colon
DMS 114 small cell lung = tested on: DMS 114 small cell lung
DMS 273 small cell lung = tested on: DMS 273 small cell lung
EKVX NSCLC = tested on: EKVX NSCLC
HCC-2998 colon = tested on: HCC-2998 colon
HCT-116 colon = tested on: HCT-116 colon
HCT-15 colon = tested on: HCT-15 colon
HL-60(TB) leukemia = tested on: HL-60(TB) leukemia
HOP-18 NSCLC = tested on: HOP-18 NSCLC
HOP-62 NSCLC = tested on: HOP-62 NSCLC
HT29 colon = tested on: HT29 colon
IGROV1 ovarian = tested on: IGROV1 ovarian
K-562 leukemia = tested on: K-562 leukemia
KM12 colon = tested on: KM12 colon
KM20L2 colon = tested on: KM20L2 colon
LOX IMVI melanoma = tested on: LOX IMVI melanoma
LXFL 529 NSCLC = tested on: LXFL 529 NSCLC
M14 melanoma = tested on: M14 melanoma
M19-MEL melanoma = tested on: M19-MEL melanoma
MALME-3M melanoma = tested on: MALME-3M melanoma
MOLT-4 leukemia = tested on: MOLT-4 leukemia
NCI-H226 lung = tested on: NCI-H226 lung
NCI-H23 lung = tested on: NCI-H23 lung
NCI-H460 lung = tested on: NCI-H460 lung
NCI-H522 lung = tested on: NCI-H522 lung
OVCAR-3 ovarian = tested on: OVCAR-3 ovarian
OVCAR-4 ovarian = tested on: OVCAR-4 ovarian
OVCAR-5 ovarian = tested on: OVCAR-5 ovarian
OVCAR-8 ovarian = tested on: OVCAR-8 ovarian
RXF 393 renal = tested on: RXF 393 renal
RXF-631 renal = tested on: RXF-631 renal
SF-268 CNS = tested on: SF-268 CNS
SF-295 CNS = tested on: SF-295 CNS
SF-539 CNS = tested on: SF-539 CNS
SK-MEL-2 melanoma = tested on: SK-MEL-2 melanoma
SK-MEL-28 melanoma = tested on: SK-MEL-28 melanoma
SK-MEL-5 melanoma = tested on: SK-MEL-5 melanoma
SK-OV-3 ovarian = tested on: SK-OV-3 ovarian
SN12C renal = tested on: SN12C renal
SNB-19 CNS = tested on: SNB-19 CNS
SNB-75 CNS = tested on: SNB-75 CNS
SNB-78 CNS = tested on: SNB-78 CNS
SR leukemia = tested on: SR leukemia
SW-620 colon = tested on: SW-620 colon
TK-10 renal = tested on: TK-10 renal
U251 CNS = tested on: U251 CNS
UACC-257 melanoma = tested on: UACC-257 melanoma
UACC-62 melanoma = tested on: UACC-62 melanoma
UO-31 renal = tested on: UO-31 renal
XF 498 CNS = tested on: XF 498 CNS
HOP-92 NSCLC = tested on: HOP-92 NSCLC
RPMI-8226 leukemia = tested on: RPMI-8226 leukemia

C[N+](C)(C)CC(=O)NC(=O)N/N=C\C(CC#N)CN(Cc1ccccc1)Cc1ccccc1 (configuration not stated)
TGI (786-0 renal): > 100 µM | TGI (A498 renal): > 100 µM | TGI (A549 NSCLC): > 100 µM | TGI (ACHN renal): > 100 µM | TGI (CAKI-1 renal): > 100 µM | TGI (CCRF-CEM leukemia): > 100 µM | TGI (COLO 205 colon): > 100 µM | TGI (DLD-1 colon): > 100 µM | TGI (DMS 114 small cell lung): > 100 µM | TGI (DMS 273 small cell lung): > 100 µM | TGI (EKVX NSCLC): > 100 µM | TGI (HCC-2998 colon): > 100 µM | TGI (HCT-116 colon): > 100 µM | TGI (HCT-15 colon): > 100 µM | TGI (HL-60(TB) leukemia): > 100 µM | TGI (HOP-18 NSCLC): > 100 µM | TGI (HOP-62 NSCLC): > 100 µM | TGI (HT29 colon): > 100 µM | TGI (IGROV1 ovarian): > 100 µM | TGI (K-562 leukemia): > 100 µM | TGI (KM12 colon): > 100 µM | TGI (KM20L2 colon): > 100 µM | TGI (LOX IMVI melanoma): > 100 µM | TGI (LXFL 529 NSCLC): > 100 µM | TGI (M14 melanoma): > 100 µM | TGI (M19-MEL melanoma): > 100 µM | TGI (MALME-3M melanoma): > 100 µM | TGI (MOLT-4 leukemia): > 100 µM | TGI (NCI-H226 lung): > 100 µM | TGI (NCI-H23 lung): > 100 µM | TGI (NCI-H460 lung): > 100 µM | TGI (NCI-H522 lung): > 100 µM | TGI (OVCAR-3 ovarian): > 100 µM | TGI (OVCAR-4 ovarian): > 100 µM | TGI (OVCAR-5 ovarian): > 100 µM | TGI (OVCAR-8 ovarian): > 100 µM | TGI (RXF 393 renal): > 100 µM | TGI (RXF-631 renal): > 100 µM | TGI (SF-268 CNS): > 100 µM | TGI (SF-295 CNS): > 100 µM | TGI (SF-539 CNS): > 100 µM | TGI (SK-MEL-2 melanoma): > 100 µM | TGI (SK-MEL-28 melanoma): > 100 µM | TGI (SK-MEL-5 melanoma): > 100 µM | TGI (SK-OV-3 ovarian): > 100 µM | TGI (SN12C renal): > 100 µM | TGI (SNB-19 CNS): > 100 µM | TGI (SNB-75 CNS): > 100 µM | TGI (SNB-78 CNS): > 100 µM | TGI (SR leukemia): > 100 µM | TGI (SW-620 colon): > 100 µM | TGI (TK-10 renal): > 100 µM | TGI (U251 CNS): > 100 µM | TGI (UACC-257 melanoma): > 100 µM | TGI (UACC-62 melanoma): > 100 µM | TGI (UO-31 renal): > 100 µM | TGI (XF 498 CNS): > 100 µM

NNC(=S)N/N=C(\c1nc2ccc(Cl)cc2[nH]c1=O)C(O)c1ccc(Cl)cc1Cl (configuration not stated)
TGI (786-0 renal): > 100 µM | TGI (A498 renal): > 100 µM | TGI (A549 NSCLC): > 100 µM | TGI (ACHN renal): > 100 µM | TGI (CAKI-1 renal): > 100 µM | TGI (CCRF-CEM leukemia): > 100 µM | TGI (COLO 205 colon): > 100 µM | TGI (DLD-1 colon): > 100 µM | TGI (DMS 114 small cell lung): > 100 µM | TGI (DMS 273 small cell lung): > 100 µM | TGI (EKVX NSCLC): > 100 µM | TGI (HCT-116 colon): > 100 µM | TGI (HCT-15 colon): > 100 µM | TGI (HL-60(TB) leukemia): > 100 µM | TGI (HOP-18 NSCLC): > 100 µM | TGI (HOP-62 NSCLC): > 100 µM | TGI (HOP-92 NSCLC): > 100 µM | TGI (HT29 colon): > 100 µM | TGI (IGROV1 ovarian): > 100 µM | TGI (K-562 leukemia): > 100 µM | TGI (KM12 colon): > 100 µM | TGI (KM20L2 colon): > 100 µM | TGI (LOX IMVI melanoma): > 100 µM | TGI (LXFL 529 NSCLC): > 100 µM | TGI (M14 melanoma): > 100 µM | TGI (M19-MEL melanoma): > 100 µM | TGI (MALME-3M melanoma): > 100 µM | TGI (MOLT-4 leukemia): > 100 µM | TGI (NCI-H226 lung): > 100 µM | TGI (NCI-H23 lung): > 100 µM | TGI (NCI-H460 lung): > 100 µM | TGI (NCI-H522 lung): > 100 µM | TGI (OVCAR-4 ovarian): > 100 µM | TGI (OVCAR-5 ovarian): > 100 µM | TGI (OVCAR-8 ovarian): > 100 µM | TGI (RPMI-8226 leukemia): > 100 µM | TGI (RXF 393 renal): > 100 µM | TGI (RXF-631 renal): > 100 µM | TGI (SF-268 CNS): > 100 µM | TGI (SF-295 CNS): > 100 µM | TGI (SF-539 CNS): > 100 µM | TGI (SK-MEL-2 melanoma): > 100 µM | TGI (SK-MEL-28 melanoma): > 100 µM | TGI (SK-MEL-5 melanoma): > 100 µM | TGI (SK-OV-3 ovarian): > 100 µM | TGI (SN12C renal): > 100 µM | TGI (SNB-19 CNS): > 100 µM | TGI (SNB-75 CNS): > 100 µM | TGI (SNB-78 CNS): > 100 µM | TGI (SR leukemia): > 100 µM | TGI (SW-620 colon): > 100 µM | TGI (TK-10 renal): > 100 µM | TGI (U251 CNS): > 100 µM | TGI (UACC-257 melanoma): > 100 µM | TGI (UACC-62 melanoma): > 100 µM | TGI (UO-31 renal): > 100 µM | TGI (XF 498 CNS): > 100 µM

CC1=NN(C(=O)CC(=O)Nc2ccccc2)C(=O)C1N=Nc1ccc(S(N)(=O)=O)cc1 (configuration not stated)
TGI (786-0 renal): > 100 µM | TGI (A498 renal): > 100 µM | TGI (A549 NSCLC): > 100 µM | TGI (ACHN renal): > 100 µM | TGI (CAKI-1 renal): > 100 µM | TGI (CCRF-CEM leukemia): > 100 µM | TGI (COLO 205 colon): > 100 µM | TGI (DLD-1 colon): > 100 µM | TGI (DMS 114 small cell lung): > 100 µM | TGI (DMS 273 small cell lung): > 100 µM | TGI (EKVX NSCLC): > 100 µM | TGI (HCC-2998 colon): > 100 µM | TGI (HCT-116 colon): > 100 µM | TGI (HCT-15 colon): > 100 µM | TGI (HL-60(TB) leukemia): > 100 µM | TGI (HOP-18 NSCLC): > 100 µM | TGI (HOP-62 NSCLC): > 100 µM | TGI (HOP-92 NSCLC): > 100 µM | TGI (HT29 colon): > 100 µM | TGI (IGROV1 ovarian): > 100 µM | TGI (K-562 leukemia): > 100 µM | TGI (KM12 colon): > 100 µM | TGI (KM20L2 colon): > 100 µM | TGI (LOX IMVI melanoma): > 100 µM | TGI (LXFL 529 NSCLC): > 100 µM | TGI (M14 melanoma): > 100 µM | TGI (MALME-3M melanoma): > 100 µM | TGI (MOLT-4 leukemia): > 100 µM | TGI (NCI-H226 lung): > 100 µM | TGI (NCI-H23 lung): > 100 µM | TGI (NCI-H460 lung): > 100 µM | TGI (NCI-H522 lung): > 100 µM | TGI (OVCAR-3 ovarian): > 100 µM | TGI (OVCAR-4 ovarian): > 100 µM | TGI (OVCAR-5 ovarian): > 100 µM | TGI (OVCAR-8 ovarian): > 100 µM | TGI (RPMI-8226 leukemia): > 100 µM | TGI (RXF 393 renal): > 100 µM | TGI (RXF-631 renal): > 100 µM | TGI (SF-268 CNS): > 100 µM | TGI (SF-295 CNS): > 100 µM | TGI (SF-539 CNS): > 100 µM | TGI (SK-MEL-2 melanoma): > 100 µM | TGI (SK-MEL-28 melanoma): > 100 µM | TGI (SK-MEL-5 melanoma): > 100 µM | TGI (SK-OV-3 ovarian): > 100 µM | TGI (SN12C renal): > 100 µM | TGI (SNB-19 CNS): > 100 µM | TGI (SNB-75 CNS): > 100 µM | TGI (SNB-78 CNS): > 100 µM | TGI (SR leukemia): > 100 µM | TGI (SW-620 colon): > 100 µM | TGI (TK-10 renal): > 100 µM | TGI (U251 CNS): > 100 µM | TGI (UACC-257 melanoma): > 100 µM | TGI (UACC-62 melanoma): 92.6 µM | TGI (UO-31 renal): > 100 µM | TGI (XF 498 CNS): > 100 µM
